Laboratory results: US8618154B2, “LXR modulators” (Bristol-Myers Squibb Company, priority 2009, dated 2013)

Key:
ABCA1 gene expression = experiment: Human whole blood assay (hWBA), ABCA1 mRNA induction; type: cell-based; conditions: for Emax: Homo sapiens, 4 h, percent of reference pan agonist (maximal activity defined as 100%), read-out: hWBA hABCA1 L30 Max P (%); for EC50: human whole blood, 4 hours, ABCA1 mRNA normalized to L30, read-out: hWBA hABCA1 L30 EC50
Method: Human whole blood was collected in EDTA containing tubes and 0.5 mL aliquots were immediately mixed in a 96 well block with the appropriate serial dilution of test compound, in 0.5% DMSO. Compounds were incubated with blood at 37° C. with constant rocking for 4 hours. After incubation, cells were lysed in ABI Nucleic Acid Purification Lysis Solution (Applied Biosystems catalog #4305895) and frozen at −80° C. Following cell lysis, total RNA was purified using an ABI 6100 RNA prep station according to the protocol provided by the manufacturer. cDNAs were synthesized, and mRNAs were quantitated using SYBR-Green Quantitative PCR (Q-PCR) on an ABI Prism 7900HT Sequence Detection System and reagents from Quanta Bioscience Inc (Quanta Bioscience catalog #95047 and 95055).
The quantity of each mRNA was determined by the ΔΔCT method (Michael W. Pfaffl. A new mathematical model for relative quantification in real-time RT-PCR. Nucleic Acids Research, 2001, Vol. 29, No. 9 e45) and normalized to the quantity of two control mRNAs, i.e. ribosomal protein L-30 (L-30) and beta-2-microglobulin (B2M). The induction of ABCA1 and ABCG1 by test compound was graphed as a percent of the reference compound, 2-(4-(5-(5-cyano-1-(2,4-difluorobenzyl)-6-oxo-4-(trifluoromethyl)-1,6-dihydropyridin-2-yl)thiophen-2-yl)-3-methylphenyl)acetic acid, and potency (EC50) and activity (% MAX) were calculated by fitting a sigmoidal response curve as a function of log transformed compound concentration using XLFit software according to the equation y=A+((B−A)/(1+((C/x)^D))).

[1] = test system: ABCG1 mRNA in blood cells; experiment: In vivo potency and maximum ABCG1 induction in cynomolgus monkey; conditions: po; for EC50: Macaca fascicularis, 5 h
Method: Compounds of the present invention were tested for their ability to induce the mRNA for the LXR target gene ABCG1 in blood cells when administered orally to cynomolgus monkeys.
Test compounds were formulated in 0.5% carboxymethyl cellulose (CMC, Sigma) and 2% Tween 80 (Sigma) by trituration. Each treatment group contained three male monkeys, each weighing 3.0-6.0 kg at the start of the study. Test compounds were formulated fresh each morning in vehicle, and animals that had been fasted the previous night were dosed between 7 and 7:30 AM by po gavage. For baseline blood cell mRNA determinations, 1 ml of venous blood was collected in an EDTA dry-coated tube and 1 volume of Dulbecco's Phosphate Buffered Saline without calcium or magnesium and 2 volumes of Nucleic Acid Purification Lysis Solution (Applied Biosystems, Inc.) were added. Samples were frozen at −80° C. prior to RNA isolation and analysis. Test compounds were dosed following the baseline sample collection. At 5 hr post-dose, venous blood was collected and processed as above for RNA determinations. An additional 0.5 ml of blood was also collected and analyzed for compound plasma concentrations.
Frozen samples were allowed to thaw at room temperature, and then placed on ice. Total RNA was isolated on the ABI 6100 using a pre-loaded protocol according to the manufacturer's instructions (ABI Manual #4332809 Rev. B).
qScript cDNA Synthesis Kit from Quanta Biosciences, Inc. was used to generate first-strand cDNA from each total RNA sample. 20 μl Reactions were carried out in 96-well Eppendorf AG twin-tec PCR plates on a MJ Research, Inc. model PTC-200 DNA Engine. Approximately 500 ng of total RNA was used for each reaction. Reactions were composed as follows: 4 μl 5× q-Script Reaction Mix plus 3-5 μl nuclease-free water plus 1 μl q-Script Reverse Transcriptase plus 10-12 μl input RNA. After mixing, reactions were centrifuged at 3750 rpm for 2 minutes at room temperature and run on a “q-Script” protocol (25° C. for 5 minutes, followed by 42° C. for 30 minutes, and then 85° C. for 5 minutes) in a MJ Research thermocycler. Each reaction was diluted with 30 μl of nuclease-free water and used immediately for SYBR-green Q-PCR or stored at −20° C. SYBR-Green Q-PCR reactions were performed as follows. Reaction mixtures for the LXR target gene, ABCG1, and the internal standard normalization gene ribosomal protein L30 were prepared using validated forward/reverse primer sets [ABCG1 (X-Mmul-ABCG1-F1 and X-Mmul-ABCG1-R1); ribosomal protein L30 (SYBR-hL30-F1 and SYBR-hL30-R1)]. […]
The relative amount of ABCG1 mRNA was calculated using the second derivative comparative Ct method (2^−ΔΔCt). Quantification was obtained after normalization to ribosomal protein L30 mRNA. […]

EC50 [1] [nM] | Structure (SMILES) | Emax (ABCA1 gene expression) [%] | EC50 (ABCA1 gene expression) [nM] | Maximum ABCG1 Induction (fold vs. baseline ± S.E.) ([1]; blood cells, 5 hrs post-dose) [fold vs. baseline]
630 ± 168 | CC(C)(O)c1cn(-c2ccc(-c3cccc(S(C)(=O)=O)c3)cc2)c(C(C)(C)c2ccccc2Cl)n1 [Compound No. 19, Table 1, WO 2007/002563, reference compound] | 55 | > 1000 | 12.4 ± 1.8
141 ± 53 | CC(C)(O)c1cn(-c2ccc(-c3cc(F)c(CO)c(S(C)(=O)=O)c3)cc2)c(C(C)(C)c2cccc(F)c2Cl)n1 [Example 4, 2-(2-(2-(2-chloro-3-fluorophenyl)propan-2-yl)-1-(3′-fluoro-4′-(hydroxymethyl)-5′-(methylsulfonyl)biphenyl-4-yl)-1H-imidazol-4-yl)propan-2-ol] | 34 | < 100 | 
11 ± 6 | CC(C)(O)c1cn(-c2ccc(-c3cc(F)c(CO)c(S(C)(=O)=O)c3)cc2F)c(C(C)(C)c2c(Cl)cccc2Cl)n1 [Example 9, 2-(2-(2-(2,6-dichlorophenyl)propan-2-yl)-1-(3,3′-difluoro-4′-(hydroxymethyl)-5′-(methylsulfonyl)biphenyl-4-yl)-1H-imidazol-4-yl)propan-2-ol] | 28 | < 100 | 
